Experimental data from US8367328B2, “Method for synthesizing DNA” (Takara Bio Inc., priority 1998, dated 2013).

Target: T1, Taq DNA Polymerase (Thermus aquaticus, UniProt P19821)
T1 construct: purchased Takara Shuzo Co., Ltd
Test: PCR with Taq DNA Polymerase in the presence of cationic complexes
Assay type: biochemical
Conditions: for Amount of amplified DNA relative to No Addition (=1), Taq: 100 pg E. coli JM109 genomic DNA, primers Eco1/Eco2, 30 cycles 98°C 5 s–68°C 2 min, FM-BIO 100
From the text: Using hexaamminecobalt (III) chloride ([Co(NH3)6]Cl3) (manufactured by Sigma), tris(ethylenediamine)cobalt (III) chloride ([Co(C2H8N2)3]Cl3) (manufactured by Aldrich), or tris(ethylenediamine)rhodium (III) trichloride•trihydrate ([Rh(C2H8N2)3]Cl3.3H2O) (manufactured by Aldrich), the effects on the amplification reaction by various kinds of DNA polymerases were examined. As the DNA polymerases, TaKaRa Taq DNA Polymerase (hereinafter referred to as “Taq DNA Polymerase” manufactured by Takara Shuzo Co., Ltd.), Pyrobest DNA Polymerase (manufactured by Takara Shuzo Co., Ltd.) and Ex Taq DNA Polymerase (manufactured by Takara Shuzo Co., Ltd.) were used.
A reaction mixture comprising Escherichia coli JM109 genomic DNA as a template, primers Eco1 and Eco2 as a primer pair, and DNA polymerase was prepared, and PCR was carried out. The compositions of the reaction mixture for each enzyme are as follows.
5 μl of buffer for 10×Taq PCR buffer (manufactured by Takara Shuzo Co., Ltd.), 0.2 mM each of dATP, dCTP, dGTP and dTTP, 1.25 U of Taq DNA Polymerase, 100 pg of Escherichia coli JM109 genomic DNA, and 10 pmol each of primers Eco1 and Eco2 (a final volume being 50 μl).
Further, an aqueous solution of the above-mentioned complexes each so as to have a final concentration of 50 μM, 100 μM, or 200 μM was added to the above reaction mixture.
The reaction was carried out in Fast mode by using TaKaRa PCR Thermal Cycler Personal (manufactured by Takara Shuzo Co., Ltd.). The reaction conditions are as follows. When using Taq DNA Polymerase and Pyrobest DNA Polymerase, the reaction in 30 cycles was carried out for each of these reaction mixtures, wherein one cycle of reaction comprises a process consisting of 98° C., 5 seconds—68° C., 2 minutes, and when using ExTaq DNA Polymerase, the reaction in 30 cycles was carried out for each of these reaction mixtures, wherein one cycle of reaction comprises a process consisting of 98° C., 5 seconds—68° C., 1 minute. After the termination of the reaction, 5 μl of the resulting reaction mixture was subjected to electrophoresis on 2% agarose gel containing ethidium bromide in an amount of 0.00005%. The gel after the electrophoresis was subjected to ultraviolet irradiation to visualize the band ascribed to the amplified product, whereby an amplified fragment was confirmed. The amount of amplified DNA was numerically explained by using a fluorescent image analyzer FM-BIO 100 (manufactured by Takara Shuzo Co., Ltd.).
The DNA polymerases used and the composition for the reaction mixture were similar to those in Example 17, except for the cationic complex, where in cases of using Taq DNA Polymerase and Pyrobest DNA Polymerase, hexaamminecobalt (III) chloride was added so as to have a final concentration of 100 μM, and in a case of using ExTaq DNA Polymerase, hexaamminecobalt (III) chloride was added so as to have a final concentration of 50 μM, respectively.
The reaction was carried out in Fast mode by using TaKaRa PCR Thermal Cycler Personal. The reaction conditions are as follows. When using Taq DNA Polymerase and Pyrobest DNA Polymerase, the reaction in 30 cycles was carried out, wherein one cycle of reaction comprises a process consisting of 98° C., […], 60 seconds or 80 seconds or 100 seconds or 120 seconds. When using ExTaq DNA Polymerase, the reaction in 30 cycles was carried out, wherein one cycle of reaction comprises a process consisting of 98° C., 5 seconds—68° C., 30 seconds or 40 seconds or 50 seconds or 60 seconds.
On the other hand, as a control, the time period or number of cycles for annealing and extension reaction were determined so as to obtain the same amount of the amount of amplified product for one without addition of the cationic complex mentioned above.
After the termination of the reaction, 5 μL of the resulting reaction mixture was subjected to electrophoresis on 2% agarose gel containing ethidium bromide in an amount of 0.00005%. […]

T1 sequence (P19821 whole entry): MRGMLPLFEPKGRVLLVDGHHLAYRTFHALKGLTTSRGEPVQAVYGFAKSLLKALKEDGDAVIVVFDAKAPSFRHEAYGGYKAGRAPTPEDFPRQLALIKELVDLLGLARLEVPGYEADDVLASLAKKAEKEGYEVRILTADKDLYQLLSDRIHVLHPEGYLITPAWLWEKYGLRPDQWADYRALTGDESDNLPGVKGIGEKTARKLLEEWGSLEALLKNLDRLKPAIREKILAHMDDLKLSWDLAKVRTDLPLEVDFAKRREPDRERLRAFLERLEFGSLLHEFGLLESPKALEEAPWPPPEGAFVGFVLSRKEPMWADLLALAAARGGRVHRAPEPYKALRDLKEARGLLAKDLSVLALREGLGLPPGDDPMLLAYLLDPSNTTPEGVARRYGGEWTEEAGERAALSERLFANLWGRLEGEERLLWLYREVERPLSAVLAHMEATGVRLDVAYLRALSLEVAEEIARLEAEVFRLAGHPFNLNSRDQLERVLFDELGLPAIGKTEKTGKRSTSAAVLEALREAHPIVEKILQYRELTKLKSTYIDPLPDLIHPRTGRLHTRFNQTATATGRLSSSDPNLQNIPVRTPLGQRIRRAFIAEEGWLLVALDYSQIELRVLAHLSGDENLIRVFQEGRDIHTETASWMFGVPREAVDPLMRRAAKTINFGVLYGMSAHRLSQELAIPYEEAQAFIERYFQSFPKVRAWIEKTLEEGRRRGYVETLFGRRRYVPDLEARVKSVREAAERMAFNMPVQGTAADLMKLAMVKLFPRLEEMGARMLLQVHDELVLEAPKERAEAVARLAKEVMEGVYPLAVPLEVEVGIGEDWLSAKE

## N.N.N.N.N.N.[Cl-].[Cl-].[Cl-].[Co+3] [[Co(NH3)6]Cl3, hexaamminecobalt (III) chloride]
Complex 50 μM
  Amount of amplified DNA relative to No Addition (=1), Taq: 2.3
Complex 100 μM
  Amount of amplified DNA relative to No Addition (=1), Taq: 2.9
Taq 0.625 U + 100 μM complex vs 1.25 U without addition
  Amplification with one-half the usual enzyme amount versus usual amount without addition: almost the same level
Taq, 10 ng E. coli genome, primers Eco1/Eco5 (10 kb), 30 cycles 98°C 5 s–68°C 10 min, 10 μM or 20 μM, only slight without addition
  Amplification of desired long DNA fragment: excellently amplified
Taq, 100 μM
  Reaction time period as fraction of that of no addition: about ⅗
Taq, 100 μM complex added, 98°C 5 s–68°C 60 s, 30 cycles (no addition: 120 s, 31 cycles, 4911 s)
  Time Period Required (for same amount of amplified product): 2953 s
Taq, 100 μM complex, primers 2–20 pmol tested, no amplification without addition
  Primer amount with which a fragment can still be amplified: 2 pmol
Taq, 100 μM complex, templates 1 pg–1 ng tested, no amplification at 1 pg without addition
  Amount of template DNA at which amplification was still possible: 1 pg
Taq, 0.75 mM magnesium chloride (usual 1.5 mM), 100 μM complex, no amplification without addition
  Amplification in low-magnesium reaction mixture: allowed to amplify

## NCCN.NCCN.NCCN.O.O.O.[Cl][Rh]([Cl])[Cl] [[Rh(H2NCH2CH2NH2)3]Cl3, tris(ethylenediamine)rhodium (III) trichloride•trihydrate]
Complex 50 μM
  Amount of amplified DNA relative to No Addition (=1), Taq: 1.4
Complex 100 μM
  Amount of amplified DNA relative to No Addition (=1), Taq: 2.1
Complex 200 μM
  Amount of amplified DNA relative to No Addition (=1), Taq: 2.5

## NCCN.NCCN.NCCN.[Cl-].[Cl-].[Cl-].[Co+3] [[Co(H2NCH2CH2NH2)3]Cl3, tris(ethylenediamine)cobalt (III) chloride]
Complex 50 μM
  Amount of amplified DNA relative to No Addition (=1), Taq: 2.6
Complex 100 μM
  Amount of amplified DNA relative to No Addition (=1), Taq: 3.0
